Data taken from patent US20160341718A1, “METHODS FOR TESTING T CELL PRIMING EFFICACY IN A SUBJECT” (priority 2014, published 2016).

System: naïve ELA-specific CD8+ T cell precursors in HLA-A2+ PBMCs
Assay: In vitro priming of ELA-specific CD8+ T cells from unfractionated PBMCs, ELA/HLA-A2 tetramer enumeration and CD45RA/CCR7 phenotype
Type: cell-based, human
Settings: day 10 after priming of HLA-A2+ PBMCs with ELA-20 1 μM
Text: Naïve precursors specific for the HLA-A*02:01-restricted epitope [sequence] […] The frequency, phenotype and functional profiling of ELA-specific CD8+ T cells were typically determined on day 10 or 11. Purified naïve and memory CD8+ T cell subsets for priming experiments were obtained using T Cell Enrichment Column Kits (R&D Systems).
ELA-specific CD8^+ T cells were quantified by flow cytometry using fluorochrome-labeled ELA/HLA-A*02:01 tetramers (FIG. 2A). […] For this purpose, we mixed purified naïve or memory CD8^+ T cells separately with autologous CD8-depleted PBMCs to initiate priming (FIG. 2B).
Moreover, to ensure optimal immunogenicity, we used the heteroclitic sequence [sequence]

For lipopolysaccharide [TLR4L], the “magnitude of primed/expanded ELA tetramer+ CD8+ T cells” value was “only marginal effects”.
